Here are results for 15 molecules from patent EP0970046B1, “N-HYDROXY-2-(ALKYL, ARYL, OR HETEROARYL SULFANYL, SULFINYL OR SULFONYL)-3-SUBSTITUTED ALKYL, ARYL OR HETEROARYLAMIDES AS MATRIX METALLOPROTEINASE INHIBITORS” (Wyeth Holdings Corporation, priority 1997, dated 1998).

Structures are written as SMILES. Like-named read-outs stand apart in the source and are kept apart here.

One assay addresses T1, TACE (Homo sapiens, UniProt P78536).
T1 construct: purchased Immunex
Description: Procedure for Measuring TACE Inhibition. To be noted: 1 µM; for inhibition at 1 µM: read-out: TACE % inhibition at 1 µM. Type of assay: biochemical. On the procedure:
Using 96-well black microtiter plates, each well receives a solution composed of 10 µL TACE (Immunex, final concentration 1µg/mL), 70µL Tris buffer, pH 7.4 containing 10% glycerol (final concentration 10 mM), and 10 µL of test compound solution in DMSO (final concentration 1µM, DMSO concentration <1%) and incubated for 10 minutes at room temperature. The reaction is initiated by addition of a fluorescent peptidyl substrate (final concentration 100 µM) to each well and then shaking on a shaker for 5 sec. The reaction is read (excitation 340 nm, emission 420 nm) for 10 min. and the increase in fluorescence over time is plotted as a linear line. The slope of the line is calculated and represents the reaction rate. The linearity of the reaction rate is confirmed (r^2 >0.85). The mean (x±sem) of the control rate is calculated and compared for statistical significance (p<0.05) with drug-treated rates using Dunnett's multiple comparison test.

For the next assay, the target named is MMP 13 (Homo sapiens, UniProt P45452). Description: MMP 13 inhibition (HTS; method not described). Type of assay: biochemical. The conditions noted are these: HTS; for inhibition at 0.2 µM: read-out: MMP 13 % inhibition at 0.2 µM (HTS); for inhibition at 0.036 µM: read-out: MMP 13 % inhibition at 36 nM (HTS).

T1 sequence (P78536 215-824): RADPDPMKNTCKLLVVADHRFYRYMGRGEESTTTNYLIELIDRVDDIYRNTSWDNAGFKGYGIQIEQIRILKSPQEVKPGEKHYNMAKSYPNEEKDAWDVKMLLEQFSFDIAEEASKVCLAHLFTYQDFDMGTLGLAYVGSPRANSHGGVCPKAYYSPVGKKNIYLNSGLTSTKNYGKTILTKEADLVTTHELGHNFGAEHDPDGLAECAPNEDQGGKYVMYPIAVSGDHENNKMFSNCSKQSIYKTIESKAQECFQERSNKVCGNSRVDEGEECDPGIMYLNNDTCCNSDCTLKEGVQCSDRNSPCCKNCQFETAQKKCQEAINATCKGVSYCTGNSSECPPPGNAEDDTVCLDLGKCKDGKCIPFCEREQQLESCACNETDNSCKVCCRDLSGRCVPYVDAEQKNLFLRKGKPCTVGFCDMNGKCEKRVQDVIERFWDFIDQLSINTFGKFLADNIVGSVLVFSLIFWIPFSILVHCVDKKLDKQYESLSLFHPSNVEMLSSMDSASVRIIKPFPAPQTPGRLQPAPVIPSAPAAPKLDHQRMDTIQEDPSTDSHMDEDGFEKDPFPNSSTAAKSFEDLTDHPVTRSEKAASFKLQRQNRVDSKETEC

One may read the inhibition as the change of the read-out against control, counted positive when it falls. As for `O=C(NO)C(COCc1ccccc1)[S+]([O-])Cc1ccccc1Cl` (stereo not shown) [Example 150, 3-Benzyloxy-N-hydroxy-2-(2-chloro-benzylsulfinyl)-propionamide], the inhibition at 1 µM on TACE (Examples 110-168) is 1.82%. Moreover, the inhibition at 0.2 µM on MMP 13 came to 54%.

As to `O=C(NO)C(COCc1ccccc1)S(=O)(=O)Cc1ccccc1Cl` (stereo not shown) [Example 151, 3-Benzyloxy-N-hydroxy-2-(2-chloro-benzylsulfonyl)-propionamide], the inhibition at 1 µM at TACE (Examples 110-168) was found to be 5.93%. At MMP 13, the inhibition at 0.2 µM came out at 6%.

As for `O=C(NO)C(Cc1cnc[nH]1)[S+]([O-])c1ccc(Br)cc1` (stereo not shown) [Example 153, 2-(4-bromo-benzenesulfinyl)-N-hydroxy-3-(3H-imidazol-4-yl)-propionamide], the inhibition at 1 µM at TACE (Examples 110-168) is 11.8%. Further, the inhibition at 0.2 µM at MMP 13 is 12%.

As for `O=C(NO)C(Cc1cnc[nH]1)S(=O)(=O)c1ccc(Cl)cc1` (stereo not shown) [Example 154, 2-(4-chloro-benzenesulfonyl)-N-hydroxy-3-(3H-imidazol-4-yl)-propionamide], the inhibition at 1 µM at TACE (Examples 110-168) amounted to 13.1%. In addition, the inhibition at 0.2 µM on MMP 13 came out at 89%.

As to `N=C(N)NCCCC(C(=O)NO)[S+]([O-])c1cccc(F)c1` (stereo not shown) [Example 156, 2-(3-Fluorophenylsulfinyl)-5-guanidino-pentanoic acid hydroxyamide], the inhibition at 1 µM at TACE (Examples 110-168) is -2.09%. On MMP 13, the inhibition at 0.2 µM amounted to 23%.

For the molecule `CCCCCCC(C(=O)NO)S(=O)(=O)c1cc(Cl)ccc1Cl` (stereo not shown) [Example 161, 2-(2,5-Dichlorobenzenesulfonyl)-octanoic acid hydroxyamide], the inhibition at 1 µM on TACE (Examples 110-168) stood at 12.7%. Further, the inhibition at 0.2 µM at MMP 13 came out at 0%.

In the case of `CCCCCCC(C(=O)NO)[S+]([O-])c1cccc(OC)c1` (stereo not shown) [Example 163, 2-(3-Methoxybenzenesulfinyl)-octanoic acid hydroxyamide], the inhibition at 1 µM on TACE (Examples 110-168) was determined as 9.52%. The inhibition at 0.2 µM at MMP 13 was 84%.

As to `CCCCCCC(C(=O)NO)[S+]([O-])c1ccc(OC)c(OC)c1` (stereo not shown) [Example 166, 2-(3,4-Dimethoxybenzenesulfinyl)-octanoic acid hydroxyamide], at TACE (Examples 110-168), the inhibition at 1 µM was determined as 4.16%. In addition, the inhibition at 0.2 µM on MMP 13 amounted to 9%.

Consider `CCCCCCC(C(=O)NO)S(=O)(=O)c1ccc(OC)c(OC)c1` (stereo not shown) [Example 167, 2-(3,4-Dimethoxybenzenesulfonyl)-octanoic acid hydroxyamide], for which the inhibition at 1 µM on TACE (Examples 110-168) amounted to 8.96%. On MMP 13, the inhibition at 0.2 µM is 27%.

For `CCCCCCC(Sc1nc(-c2ccccc2)cs1)C(=O)NO` (stereo not shown) [Example 172, 2-(4-Phenyl-thiazole-2-sulfanyl)-octanoic acid hydroxyamide], the “TACE % inhibition at 1 µM” value on TACE (Examples 169-240) was determined as 29.4%. Besides, the “MMP 13 % inhibition at 36 nM (HTS)” value at MMP 13 (36 nM) is on record as 34%.

In the case of `CCCCCCC(SCCc1cnccn1)C(=O)NO` (stereo not shown) [Example 175, 2-(2-Pyrazin-2-yl-ethylsulfanyl)-octanoic acid hydroxyamide], the inhibition at 1 µM at TACE (Examples 169-240) was determined as 32.9%. Also, on MMP 13 (read-out: MMP 13 % inhibition (HTS)), the inhibition came out at 37%. On MMP 13 (36 nM), the inhibition at 0.036 µM worked out at 16%.

Take `CCCCCCC(Sc1nnnn1C)C(=O)NO` (stereo not shown) [Example 176, 2-(1-Methyl-1H-tetrazol-5-ylsulfanyl)-octanoic acid hydroxyamide]: on TACE (Examples 169-240), the inhibition at 1 µM was found to be 26.6%. Moreover, the inhibition at 0.036 µM on MMP 13 (36 nM) was 6%.

On to `CCCCCCC(C(=O)NO)[S+]([O-])c1nc(-c2ccccc2)cs1` (stereo not shown) [Example 179, 2-(4-Phenyl-thiazole-2-sulfinyl)-octanoic acid hydroxyamide], for which the inhibition at 1 µM on TACE (Examples 169-240) was found to be 42.7%. Moreover, the inhibition at 0.036 µM on MMP 13 (36 nM) is 12%.

`CCCCCCC(C(=O)NO)[S+]([O-])CCc1cnccn1` (stereo not shown) [Example 180, 2-(2-Pyrazin-2-yl-ethylsulfinyl)-octanoic acid hydroxyamide]: on TACE (Examples 169-240), the inhibition at 1 µM worked out at 34.4%. In addition, at MMP 13 (36 nM), the inhibition at 0.036 µM amounted to 14%.

For `CCCCCCC(C(=O)NO)S(=O)(=O)c1nc(-c2ccccc2)cs1` (stereo not shown) [Example 182, 2-(4-Phenyl-thiazole-2-sulfonyl)-octanoic acid hydroxyamide], at TACE (Examples 169-240), the inhibition at 1 µM is 28.6%. At MMP 13 (36 nM), the inhibition at 0.036 µM is -9%.
